Experimental data as given in patent US5407918A, “16-membered macrolide derivatives and process for producing the same” (Meiji Seika Kaisha, Ltd., priority 1992, dated 1995).
Converted amounts (≈) assume the structure as drawn. “Also recorded” adds a separate entry of the source.

Tests used:
[1] = Journal of Antibiotics, 36 (4), 442 (1983); cited from earlier work
[2] = concentration in serum after oral administration to mice, bioassay; assay type: in vivo, mice (Jcl:ICR); conditions: for Cmax: mouse, serum, 200 mg/kg, M. luteus bioassay, read-out: maximum concentration in the serum
Summary of the method: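 Male 4-week-old Jcl:ICR mice dosed orally with compound suspended in 0.2% CMC (4 mg/ml, 1 ml; another compound at 200 mg/kg). Serum sampled 30-360 min (n=2), diluted 1:1 in CH3CN-phosphate pH 7.0; concentration measured by M. luteus ATCC9341 agar-well bioassay (32 °C, 18 h) against a calibration curve.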

[3] = recovery in urine after oral administration to mice, bioassay; assay type: in vivo; conditions: for dose excreted at 24 h: mouse, 200 mg/kg oral (compound (3)), urine 4 and 24 hours
Experimental: Subsequently, 200 mg/kg of the compound (3) was orally administered to three mice in the same manner as described above.
The three mice were put in a metabolic cage MM type (Sugiyamagen Company, Tokyo, Japan) and urine was collected 4 and 24 hours after the administration of the test compound. The collected urine was filtered through a filter having a pore size of 0.45 μm (Millipore) and was mixed with an equivalent volume of 50% CH3CN-50 mM phosphate (1:1 by volume) buffer (pH 6.5) to serve as a urine sample. The bioassay was carried out in the same manner as described above to determine the concentration of the test compound in the urine sample. The recovering in the urine was calculated according to the following equation. [formula]

[4] = oral, man and dog; cited from earlier work
[5] = system: esterase; conditions: in vivo; cited from earlier work
[6] = mice; EP-A-560,147; cited from earlier work
[7] = system: some bacteria belonging to the genus Streptococcus or Branhamella; conditions: cited from earlier work
[8] = system: esterase; conditions: EP-A-560,147 derivatives; cited from earlier work
[9] = system: B. catarrhalis W-0500; test: MIC, agar plate dilution method; assay type: cell-based; conditions: Moraxella catarrhalis, W0500, 37° C., 20 hours, read-out: Antimicrobial activity (MIC)
Summary of the method: (§1)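 Agar dilution: 5 μl inoculum, ~10^6 CFU/ml, on Sensitivity disk agar + 5% horse blood; 37° C, 20 h. Seed culture in STB; Branhamella precultured on blood agar.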

[10] = system: B. catarrhalis W-0506; test: MIC, agar plate dilution method; assay type: cell-based; conditions: Moraxella catarrhalis, W0506, 37° C., 20 hours, read-out: Antimicrobial activity (MIC)
Summary of the method: as §1

[11] = system: E. coli NIHJ JC-2; test: MIC, agar plate dilution method; assay type: cell-based; conditions: Escherichia coli, NIHJJC2, 20 h, read-out: Antimicrobial activity (MIC)
Summary of the method: as §1

[12] = system: E. faecalis W-73; test: MIC, agar plate dilution method; assay type: cell-based; conditions: Enterococcus faecalis, W73; E. faecalis W-73; 37° C., 20 hours; read-out: Antimicrobial activity (MIC)
Summary of the method: as §1

[13] = system: H. influenzae 9334; test: MIC, agar plate dilution method; assay type: cell-based; conditions: Haemophilus influenzae; H. influenzae 9334; 37° C., 20 hours; read-out: Antimicrobial activity (MIC)
Summary of the method: (§2)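 Agar plate dilution on Sensitivity disk agar with 5% horse blood; 5 μl inoculum of about 10^6 CFU/ml, Branhamella precultured on blood agar. MIC read after 20 hours at 37° C.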

[14] = system: K. pneumoniae PC1602; test: MIC, agar plate dilution method; assay type: cell-based; conditions: Klebsiella pneumoniae, 37° C., 20 hours, read-out: Antimicrobial activity (MIC)
Summary of the method: as §1

[15] = system: M. luteus ATCC9341; test: MIC, agar plate dilution method; assay type: cell-based; conditions: Micrococcus luteus; M. luteus ATCC9341; 37° C., 20 hours; read-out: Antimicrobial activity (MIC)
Summary of the method: as §1

[16] = system: M. pneumoniae FH-P24; test: MIC, agar plate dilution method; assay type: cell-based; conditions: Mycoplasmoides pneumoniae, FHP24, 20 h, read-out: Antimicrobial activity (MIC)
Summary of the method: as §1

[17] = system: M. pneumoniae FH; test: MIC, agar plate dilution method; assay type: cell-based; conditions: Mycoplasmoides pneumoniae, 20 h, read-out: Antimicrobial activity (MIC)
Summary of the method: as §1

[18] = system: M. pneumoniae Mac; test: MIC, agar plate dilution method; assay type: cell-based; conditions: Mycoplasmoides pneumoniae, 20 h, read-out: Antimicrobial activity (MIC)
Summary of the method: as §1

[19] = system: M. pneumoniae Numata; test: MIC, agar plate dilution method; assay type: cell-based; conditions: Mycoplasmoides pneumoniae, 20 h, read-out: Antimicrobial activity (MIC)
Summary of the method: as §1

[20] = system: S. Pneumoniae Type 1; test: MIC, agar plate dilution method; assay type: cell-based; conditions: Streptococcus pneumoniae; S. Pneumoniae Type 1; 37° C., 20 hours; read-out: Antimicrobial activity (MIC)
Summary of the method: as §2

[21] = system: S. Pyogenes Cook; test: MIC, agar plate dilution method; assay type: cell-based; conditions: Streptococcus pyogenes, 37° C., 20 hours, read-out: Antimicrobial activity (MIC)
Summary of the method: as §2

[22] = system: S. aureus 209P JC-1; test: MIC, agar plate dilution method; assay type: cell-based; conditions: Staphylococcus aureus; S. aureus 209P JC-1; 37° C., 20 hours; read-out: Antimicrobial activity (MIC)
Summary of the method: as §1

[23] = system: S. aureus M126; test: MIC, agar plate dilution method; assay type: cell-based; conditions: Staphylococcus aureus; S. aureus M126; 37° C., 20 hours; read-out: Antimicrobial activity (MIC)
Summary of the method: as §1

[24] = system: S. aureus M133; test: MIC, agar plate dilution method; assay type: cell-based; conditions: Staphylococcus aureus, 37° C., 20 hours, read-out: Antimicrobial activity (MIC)
Summary of the method: as §1

[25] = system: S. aureus MS15009/pMS98; test: MIC, agar plate dilution method; assay type: cell-based; conditions: Staphylococcus aureus, MS15009/PMS98, 20 h, read-out: Antimicrobial activity (MIC)
Summary of the method: as §1

[26] = system: S. aureus MS15009/pMS99; test: MIC, agar plate dilution method; assay type: cell-based; conditions: Staphylococcus aureus, MS15009/PMS99, 20 h, read-out: Antimicrobial activity (MIC)
Summary of the method: as §1

[27] = system: S. aureus MS15026; test: MIC, agar plate dilution method; assay type: cell-based; conditions: Staphylococcus aureus, 37° C., 20 hours, read-out: Antimicrobial activity (MIC)
Summary of the method: as §1

[28] = system: S. aureus MS15027; test: MIC, agar plate dilution method; assay type: cell-based; conditions: Staphylococcus aureus, 37° C., 20 hours, read-out: Antimicrobial activity (MIC)
Summary of the method: as §1

[29] = system: S. epidermidis ATCC14990; test: MIC, agar plate dilution method; assay type: cell-based; conditions: Staphylococcus epidermidis, 37° C., 20 hours, read-out: Antimicrobial activity (MIC)
Summary of the method: as §1

[30] = system: S. pneumoniae IP692; test: MIC, agar plate dilution method; assay type: cell-based; conditions: Streptococcus pneumoniae; S. pneumoniae IP692; 37° C., 20 hours; read-out: Antimicrobial activity (MIC)
Summary of the method: as §2

[31] = system: Gram-positive bacteria and Mycoplasma; test: antimicrobial activity in vitro (summary in words); assay type: cell-based; conditions: from Table 1
Summary of the method: as §1

[32] = system: Mycoplasma; test: anti-Mycoplasma activity (summary in words); assay type: cell-based
Experimental: Antimicrobial activities of the compounds of the present invention were determined by measuring minimum inhibitory concentration (MIC). Minimum inhibitory concentration was determined by the agar plate dilution method in the following manner.
Test strains were subjected to seed culture using Sensitivity test broth (STB, Nissui Pharmaceutical) except that the strains belonging to the genus Streptococcus, Branhamella and Haemophilus were cultured on blood agar plate. A 5 μl portion of cell suspension of the test strains having about 10^6 CFU/ml was inoculated into Sensitivity disk agar (SDA, Nissui Pharmaceutical) supplemented with 5% horse blood and incubated at 37° C. for 20 hours. Then, MIC was measured. For comparison, MDM and leucomycin A7 (LM-A7) was also tested.

[33] = metabolism in plasma; assay type: in vitro ADME, rat; conditions: no free hydroxyl group in the neutral sugar moiety formed
Experimental: Each test compound and 50 μl of a methanol solution (10,000 γ) were added to 950 μl of thawed rat plasma and the resulting mixture was incubated at 37° C. for 24 hours. After completion of the incubation, a 20 μl portion of the mixture was added to 980 μl of 0.05M phosphate buffer (pH 7.6). A 20 μl portion of the sample solution was used to measure antimicrobial activity against M. luteus. Separately, the calibration curve was prepared by using a methanol solution containing each test compound. The starting activity of each compound in the plasma was referred to as 100%.

[34] = system: M. luteus
Experimental: Each test compound and 50 μl of a methanol solution (10,000 γ) were added to 950 μl of thawed rat plasma and the resulting mixture was incubated at 37° C. for 24 hours. After completion of the incubation, a 20 μl portion of the mixture was added to 980 μl of 0.05M phosphate buffer (pH 7.6). A 20 μl portion of the sample solution was used to measure antimicrobial activity against M. luteus.

[35] = Yakugaku Zasshi, 102 (8), 781 (1982); cited from earlier work

SMILES: CO[C@@H]1[C@@H](O[C@@H]2O[C@H](C)[C@@H](O[C@H]3C[C@@](C)(O)[C@@H](O)[C@H](C)O3)[C@H](N(C)C)[C@H]2O)[C@@H](CC=O)C[C@@H](C)[C@@H](O[C@H]2CC[C@H](N(C)C)[C@@H](C)O2)/C=C/C=C/C[C@@H](C)OC(=O)C[C@H]1OC(C)=O [spiramycin II]
- sustained antimicrobial activity in rat plasma compared with spiramycin I [1]: shows a sustained antimicrobial activity in rat plasma

SMILES: CCCC(=O)O[C@H]1[C@H](C)O[C@@H](O[C@H]2[C@H](N(C)C)[C@@H](O)[C@H](O[C@H]3[C@@H](CC=O)C[C@@H](C)[C@@H](O)/C=C/C=C/C[C@@H](C)OC(=O)C[C@@H](O)[C@@H]3OC)O[C@@H]2C)C[C@@]1(C)OC(=O)CC [RKM, rokitamycin, reference compound]
- Cmax [2]: 2900 ng/mL
- dose excreted at 24 h [3]: < 2%
- major metabolite with a cleaved lactone ring [4]: no compound with a cleaved lactone ring has been reported as a major metabolite
- metabolism of the two acyl groups in the neutral sugar moiety [5]: removed with esterase in vivo

SMILES: CCC(=O)O[C@@H]1CC(=O)O[C@H](C)C/C=C/C=C/C(=O)[C@H](C)C[C@H](CC=O)[C@H](O[C@@H]2O[C@H](C)[C@@H](O[C@H]3C[C@@](C)(OC)[C@@H](OCCC(C)C)[C@H](C)O3)[C@H](N(C)C)[C@H]2O)[C@H]1OC [4"-O-depropionyl-4"-O-isoamyl-3"-O-methylmidecamycin A3]
- maximum concentration in serum compared with marketed 16-membered macrolide antibiotics [6]: clearly improved
- recovery in urine compared with marketed 16-membered macrolide antibiotics [6]: clearly improved
- antimicrobial activity compared with MOM [7]: enhanced antimicrobial activity
- attack of the mycarose moiety by esterase [8]: scarcely attacked by esterase

SMILES: CCC(=O)O[C@@H]1CC(=O)O[C@H](C)C/C=C/C=C/[C@H](O)[C@H](C)C[C@H](CC=O)[C@H](O[C@@H]2O[C@H](C)[C@@H](O[C@H]3C[C@@](C)(OC)[C@@H](OCCC(C)C)[C@H](C)O3)[C@H](N(C)C)[C@H]2O)[C@H]1OC [(3), 4"-O-depropionyl-4"-O-isoamyl-3"-O-methylmidecamycin A1]
- MIC [9]: 0.78 µg/mL (≈ 0.926 µM)
- MIC [10]: 1.56 µg/mL (≈ 1.85 µM)
- MIC [11]: > 100 µg/mL
- MIC [12]: 3.13 µg/mL (≈ 3.72 µM)
- MIC [13]: 6.25 µg/mL (≈ 7.42 µM)
- MIC [14]: > 100 µg/mL
- MIC [15]: 0.05 µg/mL (≈ 0.0594 µM)
- MIC [16]: 0.025 µg/mL (≈ 0.0297 µM)
- MIC [17]: 1.56 µg/mL (≈ 1.85 µM)
- MIC [18]: 0.05 µg/mL (≈ 0.0594 µM)
- MIC [19]: 0.025 µg/mL (≈ 0.0297 µM)
- MIC [20]: 0.2 µg/mL (≈ 0.238 µM)
- MIC [21]: 0.1 µg/mL (≈ 0.119 µM)
- MIC [22]: 0.2 µg/mL (≈ 0.238 µM)
- MIC [23]: > 100 µg/mL
- MIC [24]: 0.78 µg/mL (≈ 0.926 µM)
- MIC [25]: 0.78 µg/mL (≈ 0.926 µM)
- MIC [26]: > 100 µg/mL
- MIC [27]: > 100 µg/mL
- MIC [28]: 0.78 µg/mL (≈ 0.926 µM)
- MIC [29]: 1.56 µg/mL (≈ 1.85 µM)
- MIC [30]: 0.1 µg/mL (≈ 0.119 µM)
- antimicrobial activities compared with MDM [31]: comparable to, or even exceeding, that of MDM
- antimicrobial activities on Gram-positive bacteria and Mycoplasma [31]: strong antimicrobial activities
- anti-Mycoplasma activity [32]: practically effective anti-Mycoplasma activity
- pharmacokinetics in mice (in words) [2]: excellent pharmacokinetics
- Cmax [2]: 11300 ng/mL
- maximum concentration in the serum, comparison in words ([2]; versus clarythromycin (CAM) or other 16-membered macrolides): comparable to that of clarythromycin (CAM); also recorded: considered the highest one among 16-membered macrolide compounds having a free hydroxyl group at the 9-position
- stability in the living mouse body (sustaining the antimicrobial activity) [3]: highly stable
- recovery in the urine compared with CAM ([3]; 200 mg/kg oral): slightly lower than that of CAM
- dose excreted at 24 h [3]: 20%
- extent of metabolism [33]: hardly metabolized
- degree of loss of the antimicrobial activity in the plasma compared with MOM [34]: lower than that of MOM

SMILES: CCC(=O)O[C@@H]1CC(=O)O[C@H](C)C/C=C/C=C/[C@H](OC(C)=O)[C@H](C)C[C@H](CC=O)[C@H](O[C@@H]2O[C@H](C)[C@@H](O[C@H]3C[C@@](C)(OC(C)=O)[C@@H](OC(=O)CC)[C@H](C)O3)[C@H](N(C)C)[C@H]2O)[C@H]1OC [MOM, miokamycin, reference compound]
- Cmax [2]: 6200 ng/mL
- dose excreted at 24 h [3]: < 2%
- metabolic pattern of the mycarose moiety in human compared with rat [35]: almost the same as that in rat
- metabolism of the two acyl groups in the neutral sugar moiety [5]: removed with esterase in vivo
